Source: US7695971B2, “Use of non-absorbable fat in determining dietary fat absorption” (Children's Hospital Medical Center, priority 2003, dated 2010)

Experiments:
[1] = Fat absorption by sucrose behenate marker method, rats (Example 2)
Method: (§1) These two diets further have the following composition by weight: about 16% fat, 45% non-fat dry milk, and 39% sucrose, providing 30:15:55 fat:protein:carbohydrate energy %. Non-fat dry milk comprised 60% carbohydrate and 40% protein by weight. The fat composition (% by weight) is given for each diet as listed below. […] Aliquots of approximately 10 microliters of each fat blend are set aside and later analyzed for fatty acid analysis. The fat blends are added to non-fat dry milk and sucrose and mixed with an electric mixer for 5 minutes. The prepared diets are placed in a capped glass bottle and stored at 4° C. until used.
(§2) The feeding and fecal collection regimen for rodents includes two days of test diet and three days of fecal collection. Prior to the study, the animals eat commercial chow ad libitum. Test diets, also fed ad libitum, replace chow on days 0 and 1, and chow is returned to the animals on day 2. Fecal collections are made on days 1, 2, and 3. The feeding and feces collection regimen is illustrated in the following table A:
(§3) In general sample sizes of 10-20 milligrams provide a 5 to 10-fold excess of behenate in terms of the sensitivity of the gas chromatograph. The weighed fecal sample is ground into small particles with a spatula and placed in a 20 mL vial for saponification, methylation, and extraction. The method for saponification and methylation of fatty acids for gas chromatographic analysis can be that reported by Mecalfe (Metcalfe, L D et al. (1966). Anal. Chem. 38: 514-515). Four mL of 0.5N methanolic sodium hydroxide are added to the vial, which is then heated in a water bath at ˜80° C. for 5 mins. After a brief cooling period, 3 mL of BF3 in methanol (14% borontrifluoride and 86% methanol) are added to methylate the sample. After another five minutes of heating in the waterbath, the sample vial is allowed to cool to allow handling. Two mL of a saturated solution of sodium chloride and 10 mL of hexane are added to the vial. The samples are then mixed with a vortex mixer for one minute. Centrifugation can be used (2500 rpm at 1 min) to expedite the process of separation into two layers. The hexane fraction is transferred by pipette into a 20 mL vial that contains ˜10 mg of sodium sulfate to dry the sample. The hexane solution is removed for gas chromatograph analysis. An injection volume of 1 μL of the 10 mL of hexane is analyzed.
Samples are analyzed with a gas chromatograph (GC) such as a Shimadzu GC-17A equipped with autosampler and autoinjector. Analysis of fatty acid methyl esters is then based on areas calculated with Shimadzu Class VP 4.3 software. […]
The absorption of fatty acids is calculated with formula II: […]

[2] = Fat absorption by sucrose behenate marker method, mice (Example 1)
Method: as §1, §2, §3
Samples are analyzed with a gas chromatograph (GC) such as a Shimadzu GC-17A equipped with autosampler and autoinjector. Analysis of fatty acid methyl esters is then based on areas calculated with Shimadzu Class VP 4.3 software. An example of an appropriate column is one that can be obtained from J&W Scientific, DB-23 (123-2332): 30 m (length), I.D. (mm) 0.32 widebore, film thickness of […], although any suitable column can be substituted. Fatty acid identification is made by the use of comparison of retention times with those of authenticated standards. The conditions for the GC analysis in the present example are: Column temperature ramping by holding at 120° C. for one minute followed by an increase of 5° C./min from 120-240° C. The temperature of the injector and flame ionization detector is 250° C. A split (8:1) injection mode is used. The carrier gas is helium with a column flow rate of 2.5 mL/min. Under these conditions, the retention time of methyl behenate is 18.7 min.
The absorption of fatty acids is calculated with formula II:
[formula] • where Fd=sum of the masses of all dietary fatty acids (or that of an individual fatty acid) other than behenic acid, • Bd=mass of dietary behenic acid, • Ff=sum of the mass of all fecal fatty acids (or that of an individual fatty acid) other than behenic acid, and • Bf=mass of fecal behenic acid.

Structure (SMILES): CCCCCCCC/C=C\CCCCCCCC(=O)O [oleic]
- absorption of individual fatty acid from safflower oil ([1]; rats, fecal collections of days 2 and 3): 90.9±0.5%
- Percent in Feces (Mean ± SEM) ([2]; fecal samples from mice ingesting Safflower Oil and Olestra Diet): 24.7 ± 01.0%
- absorption of individual fatty acid from safflower oil (in words) ([2]; mice, Safflower Oil Diet): nearly complete

Structure (SMILES): CCCCCCCCCCCCCCCCCCCCCC(=O)O [behenic acid, reference compound]
- behenic acid in feces, of the total fatty acids ([2]; mice fed Safflower Oil Diet): 33.5-66.4%
- behenic acid in feces, of the fatty acids ([2]; mice fed Safflower Oil and Olestra Diet): 12.5-19.3%

Structure (SMILES): CCCCC/C=C\C/C=C\CCCCCCCC(=O)O [linoleic acid]
- absorption of individual fatty acid from safflower oil (in words) ([1]; rat, in vivo): essentially complete
- Percent in Feces (Mean ± SEM) ([2]; male, C57B1/6, mouse, in vivo): 27.7 ± .6%
- absorption of individual fatty acid from safflower oil (in words) ([2]; mouse, in vivo): nearly complete

Structure (SMILES): CCCCCCCCCCCCCCCCCC(=O)O [Stearic acid]
- absorption of individual fatty acid from safflower oil ([1]; rat, in vivo): 75.9±0.3%
- Percent in Feces (Mean ± SEM) ([2]; male, C57B1/6, mouse, in vivo): 5.28 ± 0.3%
- absorption of individual fatty acid ([2]; male, C57B1/6, mouse, in vivo): 77.3±2.1%

Structure (SMILES): CCCCCCCCCCCCCCCC(=O)O [Palmitic acid]
- absorption of individual fatty acid from safflower oil ([1]; rat, in vivo): 90.1±0.3%
- Percent in Feces (Mean ± SEM) ([2]; male, C57B1/6, mouse, in vivo): 18.3 ± 0.5%
